Laboratory results as given in patent publication US20010006794A1, “SCREENING FOR MODULATORS OF BIOMOLECULES” (priority 1995, published 2001).

What was measured:
[1] = test system: Salmonella typhimurium wild type; assay type: cell-based
Procedure: Preliminary characterization of the utilization of large numbers of carbon sources can be carried out using manual or automated taxonomic screening devices, such as the Biolog MT, ES, GN or GP Microplate™. Alternatively, this can be performed using commercially available components. […] Briefly, strains were swabbed onto TSA plates and grown at a permissive temperature of 30° C. for 6 hours to provide an inoculum. The inoculum (MacFarland standard ˜1 in 0.89% sterile saline solution) was prepared as per Biolog “Instructions for Use” handbook, with the exception that leucine was added to correct for mutants housed in strains which were in a leucine-deficient background. Inoculum was added to Biolog GN or ES plates and incubated at the semipermissive temperature of 35° C. overnight (˜21 hr). Carbon source utilization is read colorimetrically in a microplate reader at 600 nm. Substrates that are not used similarly by wild-type and mutant are identified. […] Typically, these steps were performed using Biolog MT plates or by using a redox indicator (such as tetrazolium violet, 0.0001%) in a minimal medium with a sole carbon source (substrate being tested), supplemented with a small amount of tryptone (0.06%) or proteose peptone (0.2%). It was possible to do this in 96-well microtiter plate format, which will be adaptable to high throughput or multichannel screening.

[2] = test system: Salmonella typhimurium temperature sensitive mutant gyrA212 (strain 7533); assay type: cell-based
Source text: A Salmonella typhimurium parent strain 7389 was used to form a collection of temperature sensitive mutants. […] Complementation of the mutant phenotype was done. In the case of the three mutants described in the data of this figure (gyrA202, gyrA208, gyrA212) the complemented mutants were identified to be in the A subunit of the bacterial DNA gyrase enzyme. Each mutant was altered in a different portion (see number of mutant) of the A subunit. […] The data are expressed as fold increases in susceptibility. A four-fold increase in susceptibility is the minimum change to be considered significant in this example.
Referring to FIG. 1, the experiments were essentially by the methods outlined by the National Committee for Clinical Laboratory Standards (NCCLS). Bacteria were grown in Mueller-Hinton (MH) broth with agitation at 30° C.
The antibiotic dilution ranges used were:
Novobiocin: Range 128-0 μg/ml. Coumermycin A1: Range 128-0 μg/ml. […] Norfloxacin: Range 8-0 μg/ml. Mitomycin C: Range 8-0 μg/ml Phenylmercuric acetate: Range 32-0 μg/ml. 4-Nitroquinoline Oxide: Range 32-0 μM Rifampicin: Range 128-0 μg/ml. Gentamicin: Range 32-0 μg/ml. Streptomycin: Range 128-0 μg/ml. Cefotaxime: Range 8-0 μg/ml. Ampicillin: Range 32-0 μg/ml. Phosphonomycin (or fosfomycin): Range 128-0 μg/ml. […]

[3] = wild type with sub-MIC levels of antibiotic
[4] = wild type with sub-MIC levels of antibiotic, Biolog GN plates, 35° C.

Question: With `Cn1nnnc1SCC1=C(C(=O)O)N2C(=O)[C@@H](NC(=O)[C@H](O)c3ccccc3)[C@H]2SC1` [cefamandole] as the compound, how does the “utilization of D-alanine or D-serine as carbon source markers” value ([1]; wild type strain, sub-MICs of cell wall synthesis inhibitor) read?
Answer: affected

Question: And the “overlap of carbon source utilization phenotype with the gyraseA/ciprofloxacin induced phenotype” value [1, 3]?
Answer: 40%

Question: How did the “overlap of carbon source utilization phenotype with the gyraseA/ciprofloxacin induced phenotype” value [1, 3] turn out when `O=C(N[C@H](CO)[C@H](O)c1ccc([N+](=O)[O-])cc1)C(Cl)Cl` [chloramphenicol] was run?
Answer: 40%

Question: How did the “carbon source utilization phenotype compared with one of the gyraseA mutant alleles” value [1, 4] turn out when `O=C(O)c1cn(C2CC2)c2cc(N3CCNCC3)c(F)cc2c1=O` [ciprofloxacin] was run?
Answer: reproduces the phenotype of one of the mutant alleles perfectly

Question: What about the “overlap of carbon source utilization phenotype with the other two gyraseA mutant alleles” value [1, 4] of the same compound?
Answer: 46-71%

Question: Which “fold increase in susceptibility” value [2] does the source give for `CCn1cc(C(=O)O)c(=O)c2cc(F)c(N3CCNCC3)cc21` [norfloxacin] here?
Answer: 8 fold

Question: With `CO[C@@H]1[C@@H](OC(N)=O)[C@@H](O)[C@H](Oc2ccc3c(O)c(NC(=O)c4ccc(O)c(CC=C(C)C)c4)c(=O)oc3c2C)OC1(C)C` [novobiocin] as the compound, how does the “carbon source utilization phenotype compared with gyraseA mutants and the ciprofloxacin induced phenotype” value [1, 3] read?
Answer: very similar phenotype
